In PubChem BioAssay AID296 (DTP/NCI, 2004) one finds T/C data, which are given here for 22 compounds.

“And” between values parts separate entries of the source, which are not always exact repeats. Equal values may be shown once. Inconclusive results are not listed.

This test has as its system MX-1 breast xenograft, nude mice, tumor weight T/C. As to the kind of experiment: NCI In Vivo Anticancer Drug Screen. Data for tumor model Human Mammary Carcinoma MX-1 Xenograft (intrarenal inoculation) in NU/NU Swiss (nude) mice. The conditions noted are these: endpoint: mean tumor weight change, higher = larger tumour. The gist of the method: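 Tumor-bearing mice were treated with test compound alongside a vehicle-treated control group. Survival or tumor size was measured, and activity is expressed as the treated-group value divided by the control-group value.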
On the technique in general: Xenograft models place foreign cells or tissue in a host animal.

The mark [1] stands for this setting: dose: 300.0 mg/kg/injection, schedule: Q04DX003 (sc), vehicle: saline with Tween-80.
The mark [2] stands for this setting: dose: 600.0 mg/kg/injection, schedule: Q04DX003 (sc), vehicle: saline with Tween-80.
Where [3] appears, read: dose: 1200.0 mg/kg/injection, schedule: Q04DX003 (sc), vehicle: saline with Tween-80.
Setting [4] is: dose: 2400.0 mg/kg/injection, schedule: Q04DX003 (sc), vehicle: saline with Tween-80.
[5] abbreviates: dose: 300.0 mg/kg/injection, schedule: Q04DX003 (sc), vehicle: Klucel (hydroxypropylcellulose) (HPC).
Where [6] appears, read: dose: 600.0 mg/kg/injection, schedule: Q04DX003 (sc), vehicle: Klucel (hydroxypropylcellulose) (HPC).
Where [7] appears, read: dose: 1200.0 mg/kg/injection, schedule: Q04DX003 (sc), vehicle: Klucel (hydroxypropylcellulose) (HPC).
Setting [8] is: dose: 2400.0 mg/kg/injection, schedule: Q04DX003 (sc), vehicle: Klucel (hydroxypropylcellulose) (HPC).
Setting [9] is: dose: 800.0 mg/kg/injection, schedule: Q01DX010 (sc), vehicle: Klucel (hydroxypropylcellulose) (HPC).
[10] abbreviates: dose: 100.0 mg/kg/injection, schedule: Q04DX003 (sc), vehicle: saline with Tween-80.

On to `c1ccc2c(NCCCCCCNc3c4ccccc4nc4ccccc34)c3ccccc3nc2c1`, for which the T/C (dose: 10.0 mg/kg/injection, schedule: Q01DX010 (sc), vehicle: Klucel (hydroxypropylcellulose) (HPC)) is 87 % of control; the T/C (dose: 10.0 mg/kg/injection, schedule: Q04DX003 (sc), vehicle: Klucel (hydroxypropylcellulose) (HPC)) was 297 % of control; the T/C (dose: 20.0 mg/kg/injection, schedule: Q01DX010 (sc), vehicle: Klucel (hydroxypropylcellulose) (HPC)) is 58 % of control; the T/C (dose: 20.0 mg/kg/injection, schedule: Q04DX003 (sc), vehicle: Klucel (hydroxypropylcellulose) (HPC)) is 241 % of control; the T/C (dose: 40.0 mg/kg/injection, schedule: Q04DX003 (sc), vehicle: Klucel (hydroxypropylcellulose) (HPC)) is 322 % of control; the T/C (dose: 80.0 mg/kg/injection, schedule: Q04DX003 (sc), vehicle: Klucel (hydroxypropylcellulose) (HPC)) was 199 % of control.
`COc1ccc(C(=O)c2no[n+]([O-])c2C(=O)c2ccc(OC)cc2)cc1`: the T/C by setting is: under setting [1], 121 % of control; under setting [2], 91 % of control; under setting [3], 66 % of control; under setting [4], 88 % of control.
`O=C1CN(CO)C(=O)N1CO`: the T/C reads like this: (dose: 100.0 mg/kg/injection, schedule: Q04DX003 (ip), vehicle: saline) 93 % of control; (dose: 200.0 mg/kg/injection, schedule: Q04DX003 (ip), vehicle: saline) 67 % of control; (dose: 400.0 mg/kg/injection, schedule: Q04DX003 (ip), vehicle: saline) 28 % of control.
`CC(=O)Oc1c(C)[nH]ccc1=O`: the T/C by setting is: (dose: 200.0 mg/kg/injection, schedule: Q04DX003 (sc), vehicle: suspension in saline) 72 % of control; (dose: 400.0 mg/kg/injection, schedule: Q04DX003 (sc), vehicle: suspension in saline) 87 % of control; (dose: 800.0 mg/kg/injection, schedule: Q04DX003 (sc), vehicle: suspension in saline) 79 % of control.
`COC12C(COC(N)=O)C3=C(C(=O)C(C)=C(N)C3=O)N1CC1C2N1C` (stereo not drawn): the T/C (dose: 8.0 mg/kg/injection, schedule: Q01DX010 (sc), vehicle: saline) was -96 % of control and -95 % of control.
On to `Nc1ccc(Cl)cc1N`, for which the T/C is 116 % of control (dose: 450.0 mg/kg/injection, schedule: Q04DX003 (sc), vehicle: saline with Tween-80); 73 % of control (dose: 900.0 mg/kg/injection, schedule: Q04DX003 (sc), vehicle: saline with Tween-80); 71 % of control (dose: 1800.0 mg/kg/injection, schedule: Q04DX003 (sc), vehicle: saline with Tween-80).
Consider `COc1cc(C)c(C2NC(=O)c3ccccc3N2)cc1C` (stereo not drawn), for which the T/C under setting [5] is 53 % of control, the T/C under setting [6] is 115 % of control, the T/C under setting [7] is 93 % of control and the T/C under setting [8] was 90 % of control.
As for `CS(=O)(=O)OCCC(=O)N1CCN(C(=O)CCOS(C)(=O)=O)CC1`, the T/C runs as follows: (dose: 300.0 mg/kg/injection, schedule: Q04DX003 (sc), vehicle: suspension in saline) 8 % of control; (dose: 600.0 mg/kg/injection, schedule: Q04DX003 (sc), vehicle: suspension in saline) -100 % of control; (dose: 1200.0 mg/kg/injection, schedule: Q04DX003 (sc), vehicle: suspension in saline) -100 % of control.
Turning to `C=C(c1ccc(OC)c(OC)c1)c1nccc2cc(OC)c(OC)cc12`, the T/C is 91 % of control (dose: 150.0 mg/kg/injection, schedule: Q04DX003 (sc), vehicle: Klucel (hydroxypropylcellulose) (HPC)); 71 % of control under setting [5]; 89 % of control under setting [6]; 54 % of control under setting [7].
Consider `CC1=CC2c3cccc4[nH]cc(c34)CC2N(C)C1` (stereo not drawn), for which, where the note is “dose: 12.5 mg/kg/injection, schedule: Q04DX003 (sc), vehicle: suspension in saline”, the T/C is 153 % of control.
`CCN(Cc1ccc(Cl)c(Cl)c1)c1ccc2nc(N)nc(N)c2c1C`: the T/C is 93 % of control (dose: 9.38 mg/kg/injection, schedule: Q04DX003 (sc), vehicle: distilled water + Tween-80) and 86 % of control (dose: 18.75 mg/kg/injection, schedule: Q04DX003 (sc), vehicle: distilled water + Tween-80).
`CCCCCCCCCCCCCCCC(=O)OCC1OC(n2ccc(N)nc2=O)C(O)C1O` (stereo not drawn): the T/C (dose: 37.5 mg/kg/injection, schedule: Q04DX003 (sc), vehicle: saline with Tween-80) was 30 % of control and the T/C under setting [2] was 11 % of control.
As to `OC(CBr)C(O)C(O)C(O)CBr` (stereo not drawn), the T/C runs as follows: (dose: 15.0 mg/kg/injection, schedule: Q01DX010 (sc), vehicle: Klucel (hydroxypropylcellulose) (HPC)) 39 % of control and 42 % of control; under setting [9], -100 % of control; (dose: 1600.0 mg/kg/injection, schedule: Q01DX010 (sc), vehicle: Klucel (hydroxypropylcellulose) (HPC)) -87 % of control.
As to `CCCC(=O)OCc1cc(=O)n(C)c2c3c4c(cc12)c(C)cc(=O)n4CO3`, the T/C was 170 % of control (dose: 12.5 mg/kg/injection, schedule: Q01DX010 (sc), vehicle: Klucel (hydroxypropylcellulose) (HPC)); 67 % of control (dose: 25.0 mg/kg/injection, schedule: Q01DX010 (sc), vehicle: Klucel (hydroxypropylcellulose) (HPC)); 20 % of control (dose: 50.0 mg/kg/injection, schedule: Q01DX010 (sc), vehicle: Klucel (hydroxypropylcellulose) (HPC)); 15 % of control (dose: 100.0 mg/kg/injection, schedule: Q01DX010 (sc), vehicle: Klucel (hydroxypropylcellulose) (HPC)); 87 % of control (dose: 200.0 mg/kg/injection, schedule: Q01DX010 (sc), vehicle: Klucel (hydroxypropylcellulose) (HPC)); 91 % of control (dose: 400.0 mg/kg/injection, schedule: Q01DX010 (sc), vehicle: Klucel (hydroxypropylcellulose) (HPC)). Besides, the T/C under setting [9] is 72 % of control.
For the compound `CCSC(=O)N1c2ccc(OC)cc2C=CC1C#N` (stereo not drawn), the T/C by setting is: under setting [2], 119 % of control; under setting [3], 85 % of control; under setting [4], 57 % of control; (dose: 4800.0 mg/kg/injection, schedule: Q04DX003 (sc), vehicle: saline with Tween-80) 40 % of control.
On to `[I][Hg][CH2]C1OCCOC1[CH2][Hg][I]` (stereo not drawn), for which the T/C was 77 % of control under setting [7] and 98 % of control under setting [8].
For `CC(=O)O[C@@H]1[C@@H](O)C2=C3[C@]4(C)[C@@H]1C(C)(C)C(=O)C[C@@H]4[C@]3(O)[C@H](OC(C)=O)[C@@]1(C[C@@H]1C)C2=O`, the T/C (dose: 12.5 mg/kg/injection, schedule: Q01DX010 (sc), vehicle: saline with Tween-80) is 106 % of control; the T/C (dose: 25.0 mg/kg/injection, schedule: Q01DX010 (sc), vehicle: saline with Tween-80) is 114 % of control; the T/C (dose: 50.0 mg/kg/injection, schedule: Q01DX010 (sc), vehicle: saline with Tween-80) is 319 % of control.
For the compound `O=Cc1c(O)c2ccccc2[nH]c1=O`, the T/C (dose: 150.0 mg/kg/injection, schedule: Q04DX003 (sc), vehicle: saline with Tween-80) is 118 % of control; the T/C under setting [1] is 99 % of control; the T/C under setting [2] is 86 % of control.
Consider `C=CC(=O)NCNC(=O)C=C`, for which the T/C is 82 % of control (dose: 50.0 mg/kg/injection, schedule: Q01DX010 (sc), vehicle: saline) and 91 % of control (dose: 100.0 mg/kg/injection, schedule: Q01DX010 (sc), vehicle: saline).
As for `Nc1nnc[se]1`, the T/C is, setting by setting: under setting [10], 54 % of control; (dose: 1600.0 mg/kg/injection, schedule: Q04DX003 (sc), vehicle: saline with Tween-80) 74 % of control.
For `OCCN1CCN(CC/C=C2/c3ccccc3Sc3ccc(Cl)cc32)CC1`, the T/C is 115 % of control (dose: 12.5 mg/kg/injection, schedule: Q04DX003 (sc), vehicle: saline); 47 % of control (dose: 25.0 mg/kg/injection, schedule: Q04DX003 (sc), vehicle: saline); 44 % of control and 51 % of control (dose: 50.0 mg/kg/injection, schedule: Q04DX003 (sc), vehicle: saline).
Consider `BrC[P+](CBr)(CBr)CBr`, for which the T/C by setting is: under setting [10], 105 % of control; (dose: 200.0 mg/kg/injection, schedule: Q04DX003 (sc), vehicle: saline with Tween-80) 117 % of control; (dose: 400.0 mg/kg/injection, schedule: Q04DX003 (sc), vehicle: saline with Tween-80) 111 % of control.
